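Each compound was tested at five concentrations against cells in 96-well plates for 48 hours. The concentration for 50% growth inhibition is given as GI50.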 Activity calls are given as the source filed them. No stated cut-off is given here; in the data, active = GI50 up to about 1.1 µM and inactive = higher.
Columns and labels:
Assay in all cases: inhibition of tumour cell growth, NCI panel, 48 h
HCT-116 = tested on: HCT-116
HOP-62 = tested on: HOP-62
HT-29 = tested on: HT-29
K562 = tested on: K562
KM12 = tested on: KM12
MCF7 = tested on: MCF7
Malme-3M = tested on: Malme-3M
NCI-H23 = tested on: NCI-H23
NCI-H460 = tested on: NCI-H460
OVCAR-5 = tested on: OVCAR-5
OVCAR-8 = tested on: OVCAR-8
SK-MEL-28 = tested on: SK-MEL-28
SN12C = tested on: SN12C
UACC-257 = tested on: UACC-257
UACC-62 = tested on: UACC-62
786-0 = tested on: 786-0
ACHN = tested on: ACHN
MDA-MB-231 = tested on: MDA-MB-231
PC-3 = tested on: PC-3
DU-145 = tested on: DU-145

Compound	GI50 (HCT-116)	GI50 (HOP-62)	GI50 (HT-29)	GI50 (K562)	GI50 (KM12)	GI50 (MCF7)	GI50 (Malme-3M)	GI50 (NCI-H23)	GI50 (NCI-H460)	GI50 (OVCAR-5)	GI50 (OVCAR-8)	GI50 (SK-MEL-28)	GI50 (SN12C)	GI50 (UACC-257)	GI50 (UACC-62)	GI50 (786-0)	GI50 (ACHN)	GI50 (MDA-MB-231)	GI50 (PC-3)	GI50 (DU-145)
O=[N+]([O-])c1ccc(Nc2cccc3c4cc[nH]c(-c5ccccc5)c-4nc23)c([N+](=O)[O-])c1	> 100 µM (inactive)	> 100 µM (inactive)	> 100 µM (inactive)	36.1 µM (inactive)	> 100 µM (inactive)	54.2 µM (inactive)	> 100 µM (inactive)	> 100 µM (inactive)	> 100 µM (inactive)	> 100 µM (inactive)	> 100 µM (inactive)	> 100 µM (inactive)	> 100 µM (inactive)	> 100 µM (inactive)	93.5 µM (inactive)	–	–	–	–	–
COC(=O)C(C(=O)C(=O)NC1Nc2ccc(C)cc2S1)c1nc2ccc(Cl)cc2nc1O (stereo unspecified)	> 100 µM (inactive)	> 100 µM (inactive)	> 100 µM (inactive)	> 100 µM (inactive)	> 100 µM (inactive)	> 100 µM (inactive)	> 100 µM (inactive)	> 100 µM (inactive)	> 100 µM (inactive)	> 100 µM (inactive)	> 100 µM (inactive)	> 100 µM (inactive)	> 100 µM (inactive)	> 100 µM (inactive)	> 100 µM (inactive)	> 100 µM (inactive)	> 100 µM (inactive)	> 100 µM (inactive)	> 100 µM (inactive)	–
CC(=O)Nc1ccc(-c2nnc(SCC(=O)Nc3ccccc3)o2)cc1	31.2 µM (inactive)	> 100 µM (inactive)	60.5 µM (inactive)	> 100 µM (inactive)	65 µM (inactive)	–	> 100 µM (inactive)	39.5 µM (inactive)	> 100 µM (inactive)	> 100 µM (inactive)	> 100 µM (inactive)	> 100 µM (inactive)	90.4 µM (inactive)	93.8 µM (inactive)	54.5 µM (inactive)	> 100 µM (inactive)	> 100 µM (inactive)	–	–	–
COC(=O)C1CC2(c3ccccc3)C(=O)c3ccccc3N2O1 (stereo unspecified)	46.9 µM (inactive)	71.3 µM (inactive)	33.3 µM (inactive)	31.8 µM (inactive)	72.4 µM (inactive)	–	> 100 µM (inactive)	> 100 µM (inactive)	47.3 µM (inactive)	> 100 µM (inactive)	41.9 µM (inactive)	91.8 µM (inactive)	43 µM (inactive)	> 100 µM (inactive)	34 µM (inactive)	35.4 µM (inactive)	49.2 µM (inactive)	–	–	–
CCOC(=O)C(C)NC(=O)N(C)C12CC3CC(CC(C3)C1)C2 (stereo unspecified)	173 µM (inactive)	316 µM (inactive)	281 µM (inactive)	169 µM (inactive)	179 µM (inactive)	139 µM (inactive)	194 µM (inactive)	185 µM (inactive)	192 µM (inactive)	> 500 µM (inactive)	265 µM (inactive)	317 µM (inactive)	385 µM (inactive)	133 µM (inactive)	175 µM (inactive)	–	–	–	–	–
CC12CCC3C(CCC4(O)C=CCCC34C=O)C1(O)CC(O)C2c1ccc(=O)oc1 (stereo unspecified)	0.0573 µM (active)	0.0556 µM (active)	0.117 µM (active)	0.0741 µM (active)	0.0792 µM (active)	0.0773 µM (active)	0.0521 µM (active)	0.0512 µM (active)	0.0527 µM (active)	0.191 µM (active)	0.0682 µM (active)	0.134 µM (active)	0.0519 µM (active)	0.104 µM (active)	0.076 µM (active)	–	–	–	–	–
CCOC(=O)c1csc(-c2nc(CCNC(=O)c3ccccc3)sc2Cl)n1	47 µM (inactive)	55.7 µM (inactive)	> 100 µM (inactive)	37.1 µM (inactive)	69.2 µM (inactive)	67.6 µM (inactive)	> 100 µM (inactive)	40.9 µM (inactive)	34.4 µM (inactive)	> 100 µM (inactive)	45 µM (inactive)	56.6 µM (inactive)	> 100 µM (inactive)	> 100 µM (inactive)	59.3 µM (inactive)	> 100 µM (inactive)	> 100 µM (inactive)	–	32.1 µM (inactive)	> 100 µM (inactive)
CN(C)CCNc1c([N+](=O)[O-])cc2c3c(cccc13)C(=O)N(CCN(C)C)C2=O	0.552 µM (active)	2.03 µM (inactive)	0.61 µM (active)	0.556 µM (active)	8.18 µM (inactive)	1.22 µM (inactive)	0.635 µM (active)	1.78 µM (inactive)	0.653 µM (active)	2.03 µM (inactive)	1.05 µM (active)	1.67 µM (inactive)	1.46 µM (inactive)	2.08 µM (inactive)	1.75 µM (inactive)	–	–	–	–	–
COc1cc(/C=C(\C#N)C(N)=O)cc(Br)c1O	> 100 µM (inactive)	92.3 µM (inactive)	> 100 µM (inactive)	–	> 100 µM (inactive)	95.1 µM (inactive)	> 100 µM (inactive)	–	> 100 µM (inactive)	> 100 µM (inactive)	> 100 µM (inactive)	> 100 µM (inactive)	–	> 100 µM (inactive)	–	–	–	–	–	–
COC1(OC)CCC2(C)OC(c3ccccc3)C1O2 (stereo unspecified)	> 100 µM (inactive)	> 100 µM (inactive)	> 100 µM (inactive)	> 100 µM (inactive)	> 100 µM (inactive)	–	> 100 µM (inactive)	> 100 µM (inactive)	> 100 µM (inactive)	> 100 µM (inactive)	> 100 µM (inactive)	> 100 µM (inactive)	> 100 µM (inactive)	> 100 µM (inactive)	> 100 µM (inactive)	> 100 µM (inactive)	> 100 µM (inactive)	–	–	–
Cc1ccc(/C=C/C(=O)c2ccc([N+](=O)[O-])cc2)cc1	> 100 µM (inactive)	> 100 µM (inactive)	> 100 µM (inactive)	> 100 µM (inactive)	> 100 µM (inactive)	–	> 100 µM (inactive)	30.9 µM (inactive)	> 100 µM (inactive)	> 100 µM (inactive)	> 100 µM (inactive)	> 100 µM (inactive)	> 100 µM (inactive)	> 100 µM (inactive)	> 100 µM (inactive)	> 100 µM (inactive)	> 100 µM (inactive)	–	–	–
Cc1c(C2=NN=C(/N=N/c3c(O)cccc3O)/C2=C/c2ccccc2)c(=O)n(-c2ccccc2)n1C	> 100 µM (inactive)	> 100 µM (inactive)	> 100 µM (inactive)	> 100 µM (inactive)	> 100 µM (inactive)	> 100 µM (inactive)	> 100 µM (inactive)	> 100 µM (inactive)	> 100 µM (inactive)	> 100 µM (inactive)	> 100 µM (inactive)	> 100 µM (inactive)	> 100 µM (inactive)	> 100 µM (inactive)	> 100 µM (inactive)	–	–	–	–	–
COC(=O)C1=C(C(=O)OC)SC(=C(/N=N/c2ccccc2)c2ccccc2)S1	> 100 µM (inactive)	> 100 µM (inactive)	> 100 µM (inactive)	> 100 µM (inactive)	> 100 µM (inactive)	–	> 100 µM (inactive)	> 100 µM (inactive)	> 100 µM (inactive)	> 100 µM (inactive)	> 100 µM (inactive)	> 100 µM (inactive)	> 100 µM (inactive)	> 100 µM (inactive)	> 100 µM (inactive)	50.8 µM (inactive)	80.9 µM (inactive)	–	–	–
CC1(CO)C(O)CCC2(C)C1CCC1CC3CC12CCC3(O)CO (stereo unspecified)	2.39 µM (inactive)	1.04 µM (active)	6.5 µM (inactive)	14 µM (inactive)	> 100 µM (inactive)	5.04 µM (inactive)	> 76.2 µM (inactive)	4.91 µM (inactive)	0.333 µM (active)	> 36.9 µM (inactive)	4.84 µM (inactive)	> 100 µM (inactive)	16.7 µM (inactive)	> 81.3 µM (inactive)	0.789 µM (active)	–	–	–	–	–
CCOC(=O)Nc1ccc(S(=O)(=O)OC)cc1.CCOC(=O)Nc1ccc(S(=O)(=O)OC)cc1.NC(=O)NCCO	21.3 µM (inactive)	23.6 µM (inactive)	31.8 µM (inactive)	16.1 µM (inactive)	> 50 µM (inactive)	–	> 50 µM (inactive)	> 50 µM (inactive)	22.1 µM (inactive)	> 50 µM (inactive)	42.3 µM (inactive)	> 50 µM (inactive)	> 50 µM (inactive)	29.6 µM (inactive)	> 50 µM (inactive)	19.9 µM (inactive)	> 50 µM (inactive)	–	–	–
CC1(C)S[C@@H]2[C@H](NC(=O)CCC[C@@H](N)C(=O)O)C(=O)N2[C@H]1C(=O)O [ADICILLIN]	> 50 µM (inactive)	> 50 µM (inactive)	> 50 µM (inactive)	> 50 µM (inactive)	> 50 µM (inactive)	> 50 µM (inactive)	> 50 µM (inactive)	> 50 µM (inactive)	> 50 µM (inactive)	23.3 µM (inactive)	> 19.9 µM (inactive)	> 50 µM (inactive)	> 50 µM (inactive)	> 50 µM (inactive)	> 50 µM (inactive)	–	–	–	–	–
O=c1ccc2ccccc2o1 [COUMARIN]	> 100 µM (inactive)	> 100 µM (inactive)	> 100 µM (inactive)	> 100 µM (inactive)	> 100 µM (inactive)	–	> 100 µM (inactive)	> 100 µM (inactive)	> 100 µM (inactive)	> 100 µM (inactive)	> 100 µM (inactive)	> 100 µM (inactive)	> 100 µM (inactive)	> 100 µM (inactive)	> 100 µM (inactive)	> 100 µM (inactive)	> 100 µM (inactive)	–	–	–

From ChEMBL document CHEMBL1201862, “PubChem BioAssay data set” (2004)
